Literature values as cited in patent US20200281134A1, “GROWTH SUBSTRATE PRODUCT” (ROCKWOOL International A/S, priority 2015, published 2020).

Settings: 3-hydroxy group

O=C1O[C@H]([C@@H](O)CO)C(O)=C1O [ascorbic acid, Ascorbic acid]
pKa: 4.04
